Experimental data taken from PMC9234961 (Journal of Medicinal Chemistry, 2022).
Read-outs that look alike come from different tables or passages of the source.

Experiments:
kinases (468) [1] = biological target: kinases (468) (Homo sapiens, UniProt O15197); settings: EPHB6; 1000 nM
kinases (468) [2] = biological target: kinases (468) (Homo sapiens, UniProt O75385); settings: kinase ULK1 (Entrez ULK1); compound concentration 1000 nM
kinases (468) [3] = biological target: kinases (468) (Homo sapiens, UniProt O75676); settings: compound concentration 1000 nM
kinases (468) [4] = biological target: kinases (468) (Homo sapiens, UniProt P00519, T315I); settings: 1000 nM
kinases (468) [5] = biological target: kinases (468) (Homo sapiens, UniProt P00533); settings: EGFR; 1000 nM
kinases (468) [6] = biological target: kinases (468) (Homo sapiens, UniProt P00533, DEL746-750); settings: EGFR(E746-A750del); 1000 nM
kinases (468) [7] = biological target: kinases (468) (Homo sapiens, UniProt P08581); settings: MET; 1000 nM
kinases (468) [8] = biological target: kinases (468) (Homo sapiens, UniProt P14616); settings: INSRR; 1000 nM
kinases (468) [9] = biological target: kinases (468) (Homo sapiens, UniProt P24723); settings: PRKCH; 1000 nM
kinases (468) [10] = biological target: kinases (468) (Homo sapiens, UniProt P35968); settings: kinase VEGFR2 (Entrez KDR); compound concentration 1000 nM
kinases (468) [11] = biological target: kinases (468) (Homo sapiens, UniProt P37173); settings: kinase TGFBR2 (Entrez TGFBR2); compound concentration 1000 nM
kinases (468) [12] = biological target: kinases (468) (Homo sapiens, UniProt P41240); settings: CSK; 1000 nM
kinases (468) [13] = biological target: kinases (468) (Homo sapiens, UniProt P42681); settings: kinase TXK (Entrez TXK); compound concentration 1000 nM
kinases (468) [14] = biological target: kinases (468) (Homo sapiens, UniProt P42684); settings: ABL2; 1000 nM
kinases (468) [15] = biological target: kinases (468) (Homo sapiens, UniProt P51617); settings: IRAK1; 1000 nM
kinases (468) [16] = biological target: kinases (468) (Homo sapiens, UniProt P51813); settings: BMX; 1000 nM
kinases (468) [17] = biological target: kinases (468) (Homo sapiens, UniProt P53778); settings: p38-gamma (MAPK12); 1000 nM
kinases (468) [18] = biological target: kinases (468) (Homo sapiens, UniProt P54646); settings: AMPK-alpha2 (PRKAA2); 1000 nM
kinases (468) [19] = biological target: kinases (468) (Homo sapiens, UniProt Q02750); settings: MEK1 (MAP2K1); 1000 nM
kinases (468) [20] = biological target: kinases (468) (Homo sapiens, UniProt Q05655); settings: PRKCD; 1000 nM
kinases (468) [21] = biological target: kinases (468) (Homo sapiens, UniProt Q07002); settings: PCTK3 (CDK18); 1000 nM
kinases (468) [22] = biological target: kinases (468) (Homo sapiens, UniProt Q08881); settings: ITK; 1000 nM
kinases (468) [23] = biological target: kinases (468) (Homo sapiens, UniProt Q13464); settings: kinase ROCK1 (Entrez ROCK1); compound concentration 1000 nM
kinases (468) [24] = biological target: kinases (468) (Homo sapiens, UniProt Q13523); settings: PRP4 (PRPF4B); 1000 nM
kinases (468) [25] = biological target: kinases (468) (Homo sapiens, UniProt Q13555); settings: CAMK2G; 1000 nM
kinases (468) [26] = biological target: kinases (468) (Homo sapiens, UniProt Q15418); settings: compound concentration 1000 nM
kinases (468) [27] = biological target: kinases (468) (Homo sapiens, UniProt Q6ZN16); settings: MAP3K15; 1000 nM
kinases (468) [28] = biological target: kinases (468) (Homo sapiens, UniProt Q8NE63); settings: HIPK4; 1000 nM
kinases (468) [29] = biological target: kinases (468) (Homo sapiens, UniProt Q8TDX7); settings: NEK7; 1000 nM
kinases (468) [30] = biological target: kinases (468) (Homo sapiens, UniProt Q9BYP7); settings: kinase WNK3 (Entrez WNK3); compound concentration 1000 nM
kinases (468) [31] = biological target: kinases (468) (Homo sapiens, UniProt Q9HCP0); settings: CSNK1G1; 1000 nM
kinases (468) [32] = biological target: kinases (468) (Homo sapiens, UniProt Q9NRH2); settings: kinase SNRK (Entrez SNRK); compound concentration 1000 nM
kinases (468) [33] = biological target: kinases (468) (Homo sapiens, UniProt Q9UM73, L1196M); settings: ALK(L1196M); 1000 nM

Chain of kinases (468) (Homo sapiens, UniProt O75676) (O75676 whole entry): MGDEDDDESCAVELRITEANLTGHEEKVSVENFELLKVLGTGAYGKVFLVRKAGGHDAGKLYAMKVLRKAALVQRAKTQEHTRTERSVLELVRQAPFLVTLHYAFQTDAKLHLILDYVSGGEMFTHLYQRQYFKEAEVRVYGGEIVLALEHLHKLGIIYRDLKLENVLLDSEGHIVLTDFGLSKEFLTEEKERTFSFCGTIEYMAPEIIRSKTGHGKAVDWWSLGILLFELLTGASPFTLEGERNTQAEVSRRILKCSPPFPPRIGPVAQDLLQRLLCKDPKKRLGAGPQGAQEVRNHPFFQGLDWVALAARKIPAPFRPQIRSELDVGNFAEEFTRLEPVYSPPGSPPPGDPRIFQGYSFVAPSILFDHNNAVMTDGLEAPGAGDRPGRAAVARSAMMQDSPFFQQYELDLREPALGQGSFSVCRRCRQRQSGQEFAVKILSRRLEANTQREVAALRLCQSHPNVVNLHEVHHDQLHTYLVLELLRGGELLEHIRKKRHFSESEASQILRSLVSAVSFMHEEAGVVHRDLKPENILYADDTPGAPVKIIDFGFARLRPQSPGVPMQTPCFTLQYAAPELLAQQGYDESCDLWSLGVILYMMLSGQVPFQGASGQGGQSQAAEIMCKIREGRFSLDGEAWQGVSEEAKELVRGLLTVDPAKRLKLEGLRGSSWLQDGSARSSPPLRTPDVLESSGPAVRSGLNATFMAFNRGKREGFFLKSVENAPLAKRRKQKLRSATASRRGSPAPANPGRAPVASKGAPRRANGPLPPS
Chain of kinases (468) (Homo sapiens, UniProt Q15418) (Q15418 whole entry): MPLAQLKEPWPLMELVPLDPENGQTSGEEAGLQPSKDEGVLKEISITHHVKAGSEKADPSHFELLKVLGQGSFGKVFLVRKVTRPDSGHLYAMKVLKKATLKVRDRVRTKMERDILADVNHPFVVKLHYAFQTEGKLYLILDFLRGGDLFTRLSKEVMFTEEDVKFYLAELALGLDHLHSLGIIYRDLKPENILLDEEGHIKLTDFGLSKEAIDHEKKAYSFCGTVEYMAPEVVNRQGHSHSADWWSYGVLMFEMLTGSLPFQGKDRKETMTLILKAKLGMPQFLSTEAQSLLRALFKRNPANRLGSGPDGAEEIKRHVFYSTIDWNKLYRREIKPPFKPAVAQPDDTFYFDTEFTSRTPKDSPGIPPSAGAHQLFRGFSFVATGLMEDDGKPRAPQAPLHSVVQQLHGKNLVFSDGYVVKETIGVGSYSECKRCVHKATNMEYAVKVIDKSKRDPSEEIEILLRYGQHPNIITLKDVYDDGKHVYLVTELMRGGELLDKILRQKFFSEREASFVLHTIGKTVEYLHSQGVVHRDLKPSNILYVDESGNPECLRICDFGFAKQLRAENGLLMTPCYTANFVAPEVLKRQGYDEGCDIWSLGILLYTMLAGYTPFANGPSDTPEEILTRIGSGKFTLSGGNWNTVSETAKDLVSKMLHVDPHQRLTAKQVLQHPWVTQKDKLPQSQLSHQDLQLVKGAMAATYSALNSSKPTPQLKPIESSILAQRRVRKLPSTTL
Chain of kinases (468) (Homo sapiens, UniProt P42681) (P42681 whole entry): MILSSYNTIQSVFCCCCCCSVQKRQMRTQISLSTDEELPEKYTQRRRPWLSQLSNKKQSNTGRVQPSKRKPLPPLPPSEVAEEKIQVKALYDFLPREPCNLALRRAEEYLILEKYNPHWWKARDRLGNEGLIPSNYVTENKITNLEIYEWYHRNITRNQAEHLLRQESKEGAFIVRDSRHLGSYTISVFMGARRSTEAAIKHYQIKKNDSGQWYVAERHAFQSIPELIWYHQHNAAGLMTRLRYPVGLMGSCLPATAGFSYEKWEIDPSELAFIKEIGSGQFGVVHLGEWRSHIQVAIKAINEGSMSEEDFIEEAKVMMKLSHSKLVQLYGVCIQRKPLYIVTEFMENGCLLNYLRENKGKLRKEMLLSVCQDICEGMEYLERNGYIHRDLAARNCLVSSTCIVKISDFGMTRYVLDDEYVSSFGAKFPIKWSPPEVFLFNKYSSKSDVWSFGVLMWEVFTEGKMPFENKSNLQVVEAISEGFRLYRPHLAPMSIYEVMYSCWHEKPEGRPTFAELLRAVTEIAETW
Chain of kinases (468) (Homo sapiens, UniProt O15197) (O15197 32-1021): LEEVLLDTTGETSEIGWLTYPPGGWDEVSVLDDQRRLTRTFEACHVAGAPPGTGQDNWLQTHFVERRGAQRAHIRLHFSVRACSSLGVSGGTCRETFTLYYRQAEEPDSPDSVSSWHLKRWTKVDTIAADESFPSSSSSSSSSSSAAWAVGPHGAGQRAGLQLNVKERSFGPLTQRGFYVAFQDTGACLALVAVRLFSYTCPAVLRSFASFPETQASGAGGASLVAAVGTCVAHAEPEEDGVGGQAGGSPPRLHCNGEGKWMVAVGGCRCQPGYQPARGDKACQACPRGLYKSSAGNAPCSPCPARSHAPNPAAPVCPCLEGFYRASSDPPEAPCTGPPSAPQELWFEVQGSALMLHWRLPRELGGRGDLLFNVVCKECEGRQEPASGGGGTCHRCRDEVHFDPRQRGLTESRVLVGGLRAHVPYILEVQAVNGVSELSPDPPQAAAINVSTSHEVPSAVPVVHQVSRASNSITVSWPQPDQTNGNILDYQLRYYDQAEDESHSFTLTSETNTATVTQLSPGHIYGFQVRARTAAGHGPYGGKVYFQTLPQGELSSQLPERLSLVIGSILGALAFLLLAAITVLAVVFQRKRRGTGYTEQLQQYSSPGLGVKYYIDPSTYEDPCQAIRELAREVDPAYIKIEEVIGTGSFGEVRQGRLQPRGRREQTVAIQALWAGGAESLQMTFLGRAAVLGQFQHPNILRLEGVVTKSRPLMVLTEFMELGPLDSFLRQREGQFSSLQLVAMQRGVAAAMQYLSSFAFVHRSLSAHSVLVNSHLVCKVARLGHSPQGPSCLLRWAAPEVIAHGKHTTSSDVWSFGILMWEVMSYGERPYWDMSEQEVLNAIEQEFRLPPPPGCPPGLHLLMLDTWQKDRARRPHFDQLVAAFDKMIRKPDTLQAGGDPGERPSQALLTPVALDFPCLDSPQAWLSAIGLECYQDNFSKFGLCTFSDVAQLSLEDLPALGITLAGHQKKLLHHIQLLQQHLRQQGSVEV
Chain of kinases (468) (Homo sapiens, UniProt Q9NRH2) (Q9NRH2 whole entry): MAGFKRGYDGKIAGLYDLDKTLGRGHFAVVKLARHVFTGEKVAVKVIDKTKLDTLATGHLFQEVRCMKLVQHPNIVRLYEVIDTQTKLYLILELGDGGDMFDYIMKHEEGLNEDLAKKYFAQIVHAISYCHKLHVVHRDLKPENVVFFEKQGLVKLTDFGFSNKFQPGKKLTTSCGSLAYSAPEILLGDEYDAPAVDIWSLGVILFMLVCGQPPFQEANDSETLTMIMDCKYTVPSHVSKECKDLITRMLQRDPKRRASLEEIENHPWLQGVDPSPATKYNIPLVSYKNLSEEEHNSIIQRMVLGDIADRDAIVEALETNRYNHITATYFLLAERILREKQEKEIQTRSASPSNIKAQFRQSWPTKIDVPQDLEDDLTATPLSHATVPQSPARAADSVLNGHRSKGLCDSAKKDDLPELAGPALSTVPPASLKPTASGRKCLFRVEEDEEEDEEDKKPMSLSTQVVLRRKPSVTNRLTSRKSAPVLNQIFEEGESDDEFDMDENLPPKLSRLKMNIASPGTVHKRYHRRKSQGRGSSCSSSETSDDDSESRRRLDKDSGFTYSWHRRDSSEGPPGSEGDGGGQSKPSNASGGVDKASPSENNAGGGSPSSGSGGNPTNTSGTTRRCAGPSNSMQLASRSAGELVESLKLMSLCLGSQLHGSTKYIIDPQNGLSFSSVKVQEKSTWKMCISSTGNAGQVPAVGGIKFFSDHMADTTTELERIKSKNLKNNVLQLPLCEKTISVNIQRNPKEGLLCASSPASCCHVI
Chain of kinases (468) (Homo sapiens, UniProt P00533) (P00533 25-1210): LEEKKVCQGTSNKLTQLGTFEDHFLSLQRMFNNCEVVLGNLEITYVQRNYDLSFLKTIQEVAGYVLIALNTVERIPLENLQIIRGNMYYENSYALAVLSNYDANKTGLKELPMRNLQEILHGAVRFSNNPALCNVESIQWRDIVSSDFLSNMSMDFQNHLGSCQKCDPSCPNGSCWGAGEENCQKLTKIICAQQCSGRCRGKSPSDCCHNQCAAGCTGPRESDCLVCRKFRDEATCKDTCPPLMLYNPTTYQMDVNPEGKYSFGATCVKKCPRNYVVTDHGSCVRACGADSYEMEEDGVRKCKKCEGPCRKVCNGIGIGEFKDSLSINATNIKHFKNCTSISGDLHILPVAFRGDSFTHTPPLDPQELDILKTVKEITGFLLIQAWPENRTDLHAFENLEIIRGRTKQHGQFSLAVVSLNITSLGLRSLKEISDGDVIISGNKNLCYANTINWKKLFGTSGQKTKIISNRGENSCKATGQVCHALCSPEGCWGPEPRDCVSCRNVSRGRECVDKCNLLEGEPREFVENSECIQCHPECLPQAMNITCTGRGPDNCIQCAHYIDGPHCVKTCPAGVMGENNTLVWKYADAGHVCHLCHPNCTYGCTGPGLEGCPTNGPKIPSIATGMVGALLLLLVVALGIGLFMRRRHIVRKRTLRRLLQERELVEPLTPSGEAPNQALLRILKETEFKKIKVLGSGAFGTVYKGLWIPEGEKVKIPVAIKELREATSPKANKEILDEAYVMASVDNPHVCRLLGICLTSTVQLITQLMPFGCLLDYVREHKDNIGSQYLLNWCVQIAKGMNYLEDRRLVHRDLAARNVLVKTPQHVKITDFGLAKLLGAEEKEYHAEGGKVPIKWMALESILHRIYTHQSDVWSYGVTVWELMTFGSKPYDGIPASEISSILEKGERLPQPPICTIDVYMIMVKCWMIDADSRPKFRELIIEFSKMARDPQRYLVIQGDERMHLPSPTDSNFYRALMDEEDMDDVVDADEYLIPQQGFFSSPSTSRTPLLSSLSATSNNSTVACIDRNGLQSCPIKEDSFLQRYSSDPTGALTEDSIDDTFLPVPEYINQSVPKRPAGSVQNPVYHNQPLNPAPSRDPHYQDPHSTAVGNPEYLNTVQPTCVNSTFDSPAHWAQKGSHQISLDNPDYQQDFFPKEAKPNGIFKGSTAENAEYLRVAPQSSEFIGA

In the case of C[C@H]1C[C@@H](O)CN(c2ncc(Cl)c(Nc3ccc4c(c3)c3c(c(=O)n4C)OCC(F)(F)[C@H](C4CC4)N3)n2)C1 [CCT373566_9A], the “Percent Control” value (kinases (468) [1]) is reported as 93%, the “Percent Control” value (kinases (468) [2]) is reported as 93% and the “Percent Control” value (kinases (468) [3]; kinase RPS6KA4(Kin.Dom.1-N-terminal) (Entrez RPS6KA4)) is reported as 96%. For the same molecule, the “Percent Control” value (kinases (468) [3]; kinase RPS6KA4(Kin.Dom.2-C-terminal) (Entrez RPS6KA4)) was 100%, the “Percent Control” value (kinases (468) [4]; ABL1(T315I)-nonphosphorylated) was 89% and the “Percent Control” value (kinases (468) [4]; ABL1(T315I)-phosphorylated) was 88%. For the same molecule, the “Percent Control” value (kinases (468) [5]) was 100%, the “Percent Control” value (kinases (468) [6]) was 100% and the “Percent Control” value (kinases (468) [7]) was 100%. The “Percent Control” value (kinases (468) [8]) was 100%, the “Percent Control” value (kinases (468) [9]) was 94% and the “Percent Control” value (kinases (468) [10]) was 95%. For the same molecule, the “Percent Control” value (kinases (468) [11]) was 100%, the “Percent Control” value (kinases (468) [12]) was 86% and the “Percent Control” value (kinases (468) [13]) was 99%. The “Percent Control” value (kinases (468) [14]) was 100%, the “Percent Control” value (kinases (468) [15]) was 77% and the “Percent Control” value (kinases (468) [16]) was 100%. For the same molecule, the “Percent Control” value (kinases (468) [17]) was 92%, the “Percent Control” value (kinases (468) [18]) was 100% and the “Percent Control” value (kinases (468) [19]) was 90%. The “Percent Control” value (kinases (468) [20]) was 100%, the “Percent Control” value (kinases (468) [21]) was 99% and the “Percent Control” value (kinases (468) [22]) was 100%. For the same molecule, the “Percent Control” value (kinases (468) [23]) was 93%, the “Percent Control” value (kinases (468) [24]) was 94% and the “Percent Control” value (kinases (468) [25]) was 96%. For the same molecule, the “Percent Control” value (kinases (468) [26]; kinase RSK1(Kin.Dom.1-N-terminal) (Entrez RPS6KA1)) was 95%, the “Percent Control” value (kinases (468) [26]; kinase RSK1(Kin.Dom.2-C-terminal) (Entrez RPS6KA1)) was 90% and the “Percent Control” value (kinases (468) [27]) was 99%. The “Percent Control” value (kinases (468) [28]) was 96%, the “Percent Control” value (kinases (468) [29]) was 96% and the “Percent Control” value (kinases (468) [30]) was 96%. The “Percent Control” value (kinases (468) [31]) was 97%, the “Percent Control” value (kinases (468) [32]) was 93% and the “Percent Control” value (kinases (468) [33]) was 97%.
